Data reported in patent US5972946A, “Acetamide derivative, process for preparing the same, and a pharmaceutical composition containing the same” (Dainippon Pharmaceutical Co., Ltd., priority 1995, dated 1999).

Experiments:
[1] = molecular target: peripheral (ω3) benzodiazepine (BZ) receptor (Rattus norvegicus, UniProt P16257); experiment: BZω3 (peripheral-type) benzodiazepine receptor binding assay
Description: Experiment 1: Central (ω1, ω2) and peripheral (ω3) benzodiazepine (BZ) receptor binding assays
BZω1 and BZω2 receptor binding assays were carried out according to the method of Stephens, D. N. et al. [cf.
Receptor membrane fractions for ω1, ω2 and ω3 were prepared from the cerebellum (ω1), spinal cord (ω1) or kidney (ω3) in 7-8 week old male rats of Wistar strain by the procedure described below.
After the cerebellum or spinal cord was homogenized with 20 volumes of ice-cold 50 mM Tris-citrate buffer (pH 7.1), the homogenate was centrifuged for 15 minutes at 40,000 g. The pellet obtained was washed 4 times by the same procedure, frozen and stored for 24 hours at -60° C. The resulting pellet, after being thawed, washed with the buffer and centrifuged, was suspended in the buffer I for the binding assay (50 mM Tris-HCl buffer containing 120 mM NaCl, 5 mM KCl, 2 mM CaCl2 and 1 mM MgCl2 ; pH 7.4) and the suspension thus obtained (containing 1 g wet tissue/40 ml) was used for the BZω1 and BZω2 receptor binding assays. On the other hand, the kidney was homogenized with 20 volumes of the ice-cold buffer II for the binding assay (50 mM Na--K phosphate buffer containing 100 mM NaCl; pH 7.4), filtered through 4 sheets of gauze, and centrifuged for 20 minutes at 40,000 g. The pellet obtained was suspended in the buffer II and the suspension (containing 1 g wet tissue/100 ml) was used for the binding assay as BZω3 receptor membrane source.
Flumazenil (final concentration: 0.3 nM for (ω1 and 1 nM for ω2) and flunitrazepam (final concentration: 10 μM) were used for the BZω1 or BZω2 receptor binding assays as the isotope-labeled and unlabeled ligands, respectively. For the BZω3 receptor binding assay, [^3 H] 4'-chlorodiazepam (7-chloro-1,3-dihydro-1-methyl-5-(4-chlorophenyl)-2H-1,4-benzodiazepin-2-one) (final concentration: 0.5 nM) and diazepam (final concentration: 100 μM) were used as the isotope-labeled and unlabeled ligands, respectively. Incubation was performed for 30 minutes at 37° C. in the BZω1 or BZω2 receptor binding assays, and for 150 minutes at 0° C. in the BZω3 receptor binding assay. The BZω1 or BZω2 receptor binding assays were carried out in the presence of bicuculline (final concentration: 100 μM).
The binding assay was performed by the following procedure. After adding each test compound at certain known concentrations, a [^3 H] ligand and the buffer I or II to each test tube, each assay was started by addition of membrane preparation (total volume of 1 ml). After incubation, the assay was terminated by filtration with suction through a Whatman GF/B glass fiber filter using a cell harvester (Brandel, USA). The filters were rapidly washed 3 times with 5 ml of ice-cold 50 mM Tris-HCl buffer (pH 7.7) for ω1 and ω2, or the buffer II forω3, and transferred to scintillation vials containing 10 ml liquid scintillation cocktail (ACS-II, Amersham, USA). After a few hours, retained radioactivity was counted by a liquid scintillation spectrometer. Specific binding of [^3 H] ligands was calculated as the difference between amounts of radioactivity bound in the presence and absence of excess unlabeled ligands.

[2] = Isoniazid-induced clonic convulsion test (anti-convulsant effect); assay type: in vivo, mouse (Std-ddY, male); settings: Mus musculus, 0.5 h; oral, 30 min before isoniazid 200 mg/kg s.c.; mice; read-out: Anti-isoniazid effect ED25 (dose which prolonged the onset time of clonic convulsion by 25%)
Description: Experiment 3: Isoniazid-induced clonic convulsion test (anti-convulsant effect)
Isoniazid inhibits glutamate decarboxylase which catalyzes GABA synthesis, deases brain GABA levels, and induces clonic convulsion. According to the method of Auta, J. et al. [cf. J. Pharmacol. Exp. Ther. 265, 649-656 (1993)] with slight modification, we examined antagonistic effect of the test compounds on isoniazid-induced clonic convulsion. […] Those are BZ anxiolytics represented by diazepam, neurosteroids such as allopregnanolone, allotetrahydrodeoxycortico-sterone(THDOC) and BZω3 receptor agonists which enhance the synthesis of neurosteroids.
Male mice of Std-ddY strain weighing 22-24 g were used in a group of 6. Thirty minutes after oral administration of the test compounds, mice were injected with isoniazid (200 mg/kg, s.c.), and immediately thereafter, placed individually in acrylic observation cages. The onset time of clonic convulsion was measured (cut-off time: 90 minutes). The latency in the control group was about 40 minutes.
Anti-isoniazid effect of the test compounds was expressed as the dose which prolonged the onset time by 25% compared to that in the vehicle group (ED25). The ED25 value was calculated according to the Litchfield-Wilcoxon's method.

CCCN(CCC)C(=O)CNc1nc(-c2ccc(F)cc2)nc(C)c1C [Example 4]
IC50 [1]: 4.36 nM
ED25 [2]: 51.2 mg/kg

CCCN(CCC)C(=O)CNc1nc(-c2ccc(OC)cc2)nc(C)c1C [Example 5]
IC50 [1]: 1.28 nM
ED25 [2]: 15.1 mg/kg

CCN(CC)C(=O)CNc1nc(-c2ccc(F)cc2)nc(C)c1C [Example 11]
ED25 [2]: 47.5 mg/kg

CCN(CC)C(=O)CNc1nc(-c2ccc(OC)cc2)nc(C)c1C [Example 12]
ED25 [2]: 31.8 mg/kg

CCCN(CC)C(=O)CNc1nc(-c2ccccc2)nc(C)c1C [Example 17]
IC50 [1]: 1.97 nM
ED25 [2]: 45.7 mg/kg

Cc1nc(-c2ccc(F)cc2)nc(NCC(=O)N(C)c2ccccc2)c1C [Example 25]
IC50 [1]: 1.93 nM
ED25 [2]: 62.1 mg/kg

CCN(C(=O)CNc1nc(-c2ccccc2)nc(C)c1C)c1ccccc1 [Example 44]
IC50 [1]: 4.98 nM
ED25 [2]: 22.4 mg/kg

CCN(C(=O)CNc1nc(-c2ccc(F)cc2)nc(C)c1C)c1ccccc1 [Example 47]
IC50 [1]: 0.16 nM
ED25 [2]: 7.62 mg/kg

CCN(C(=O)CNc1nc(-c2ccc(OC)cc2)nc(C)c1C)c1ccccc1 [Example 48]
ED25 [2]: 7.67 mg/kg

CCN(C(=O)CNc1nc(-c2ccc([N+](=O)[O-])cc2)nc(C)c1C)c1ccccc1 [Example 50]
ED25 [2]: 27.3 mg/kg

CCCN(C(=O)CNc1nc(-c2ccc(Cl)cc2)nc(C)c1C)c1ccccc1 [Example 53]
ED25 [2]: 11.3 mg/kg

C=CCN(C(=O)CNc1nc(-c2ccccc2)nc(C)c1C)c1ccccc1 [Example 58]
IC50 [1]: 1.62 nM
ED25 [2]: 11.8 mg/kg

C=CCN(C(=O)CNc1nc(-c2ccc(Cl)cc2)nc(C)c1C)c1ccccc1 [Example 59]
ED25 [2]: 14.8 mg/kg

C=CCN(C(=O)CNc1nc(-c2ccc(OC)cc2)nc(C)c1C)c1ccccc1 [Example 60]
ED25 [2]: 2.14 mg/kg

Cc1nc(-c2ccccc2)nc(NCC(=O)N(CC2CC2)c2ccccc2)c1C [Example 61]
IC50 [1]: 9.8 nM
ED25 [2]: 17.7 mg/kg

Cc1nc(-c2ccccc2)nc(NCC(=O)N2CC(C)CC(C)C2)c1C (centres unmarked) [Example 65, 3,5-Dimethyl-1-(5,6-dimethyl-2-phenyl-4-pyrimidinylamino)acetylpiperidine]
IC50 [1]: 1.66 nM
ED25 [2]: 31.1 mg/kg

Cc1nc(-c2ccccc2)nc(NCC(=O)N2CC(C)OC(C)C2)c1C (centres unmarked) [Example 66a, 2,6-Dimethyl-4-(5,6-dimethyl-2-phenyl-4-pyrimidinylamino)acetylmorpholine]
ED25 [2]: 51.2 mg/kg

Cc1nc(-c2ccccc2)nc(NCC(=O)N2C[C@@H](C)O[C@@H](C)C2)c1C [Example 66b, cis-2,6-Dimethyl-4-(5,6-dimethyl-2-phenyl-4-pyrimidinylamino)acetylmorpholine]
ED25 [2]: 72.4 mg/kg

Cc1nc(-c2ccccc2)nc(N2CCCC2C(=O)N(C)c2ccc(Cl)cc2)c1C (centres unmarked) [Example 79, N-(4-chlorophenyl)-N-methyl-1-(5,6-dimethyl-2-phenyl-4-pyrimidinyl)-2-pyrrolidinecarboxamide]
IC50 [1]: 0.87 nM
ED25 [2]: 43.8 mg/kg

CCCN(CCC)C(=O)CNc1nc(-c2ccccc2)nc(C)c1CC [Example 83, 2-(5-ethyl-6-methyl-2-phenyl-4-pyrimidinylamino)-N,N-dipropylacetamide]
IC50 [1]: 5.02 nM
ED25 [2]: 70.2 mg/kg

CCCN(CCC)C(=O)COc1nc(-c2ccccc2)nc2c1CCCC2 [Example 161]
IC50 [1]: 1.05 nM

CN(C(=O)COc1nc(-c2ccccc2)nc2c1CCCC2)c1ccc(Cl)cc1 [Example 162]
IC50 [1]: 1.19 nM

CN(C(=O)COc1nc(-c2ccc(Cl)cc2)nc2c1CCCC2)c1ccc(Cl)cc1 [Example 163]
IC50 [1]: 2.64 nM

CCN(C(=O)COc1nc(-c2ccc([N+](=O)[O-])cc2)nc(C)c1C)c1ccccc1 [Example 164, N-ethyl-2-[5,6-dimethyl-2-(4-nitrophenyl)-4-pyrimidinyloxy]-N-phenylacetamide]
IC50 [1]: 0.29 nM

CCCN(CCC)C(=O)COc1cc(C)nc(-c2ccccc2)n1 [Example 166, 2-(6-methyl-2-phenyl-4-pyrimidinyloxy)-N,N-dipropylacetamide]
IC50 [1]: 5.4 nM

CCCN(CCC)C(=O)COc1nc(-c2ccccc2)nc(C)c1Cl [Example 167, 2-(5-chloro-6-methyl-2-phenyl-4-pyrimidinyloxy)-N,N-dipropylacetamide]
IC50 [1]: 0.79 nM

CCCN(CCC)C(=O)COc1nc(-c2ccccc2)nc(C)c1Br [Example 168, 2-(5-bromo-6-methyl-2-phenyl-4-pyrimidinyloxy)-N,N-dipropylacetamide]
IC50 [1]: 0.99 nM

CCCN(CCC)C(=O)C(C)Oc1nc(-c2ccccc2)nc2c1CCCC2 (centres unmarked) [Example 169, 2-(5,6,7,8-tetrahydro-2-phenyl-4-quinazolinyloxy)-N,N-dipropylpropanamide]
IC50 [1]: 1.15 nM

Cc1nc(-c2ccccc2)nc(OCC(=O)N2CC(C)CC(C)C2)c1C (centres unmarked) [Example 170, 3,5-dimethyl-1-(5,6-dimethyl-2-phenyl-4-pyrimidinyloxy)acetylpiperidine]
IC50 [1]: 0.99 nM

Cc1nc(-c2ccccc2)nc(OCC(=O)N2CC(C)OC(C)C2)c1C (centres unmarked) [Example 171, 2,6-Dimethyl-4-(5,6-dimethyl-2-phenyl-4-pyrimidinyloxy)acetylmorpholine]
IC50 [1]: 1.56 nM
ED25 [2]: 76.4 mg/kg

CCN(CC)C(=O)COc1nc(-c2ccccc2)nc(C)c1C [Example 175]
IC50 [1]: 1.9 nM

CCN(CC)C(=O)COc1nc(-c2ccccc2)nc2c1CCCC2 [Example 179]
IC50 [1]: 4.3 nM

CN(C(=O)COc1nc(-c2ccccc2)nc2c1CCCC2)c1ccccc1 [Example 180]
IC50 [1]: 1.65 nM

CN(C(=O)COc1nc(-c2ccc(Cl)cc2)nc2c1CCCC2)c1ccccc1 [Example 181]
IC50 [1]: 1.61 nM

CCCN(C(=O)COc1nc(-c2ccccc2)nc2c1CCCC2)c1ccccc1 [Example 182]
IC50 [1]: 4.57 nM

O=C(COc1nc(-c2ccccc2)nc2c1CCCC2)Nc1ccc(F)cc1 [Example 183]
IC50 [1]: 8.75 nM

CN(C(=O)COc1nc(-c2ccccc2)nc2c1CCCC2)c1ccc(F)cc1 [Example 184]
IC50 [1]: 0.82 nM

CN(C(=O)COc1nc(-c2ccccc2)nc2c1CCCC2)c1cccc(Cl)c1 [Example 187]
IC50 [1]: 9.71 nM

CN(Cc1ccccc1)C(=O)COc1nc(-c2ccccc2)nc2c1CCCC2 [Example 188]
IC50 [1]: 5.24 nM

Cc1nc(-c2ccccc2)nc(OCC(=O)N(CC2CC2)c2ccccc2)c1C [Example 190, N-cyclopropylmethyl-2-(5,6-dimethyl-2-phenyl-4-pyrimidinyloxy)-N-phenylacetamide]
IC50 [1]: 4 nM

CC1CN(C(=O)COc2nc(-c3ccc(Cl)cc3)nc3c2CCCC3)CC(C)O1 (centres unmarked) [Example 195, 4-[2-(4-Chlorophenyl)-5,6,7,8-tetrahydro-4-quinazolinyloxy] acetyl-2,6-dimethylmorpholine]
IC50 [1]: 2 nM
